Data taken from ChEMBL document CHEMBL4732042, “Studies on the affinity of 6-[(n-(cyclo)aminoalkyl)oxy]-4H-chromen-4-ones for sigma 1/2 receptors” (RSC Med Chem, 2021).

How the values were obtained:
[1] = molecular target: T1, Sigma intracellular receptor 2 (Rattus norvegicus, UniProt Q5U3Y7); assay: Displacement of (+)-[3H]DTG from sigma 2 receptor in SPRD rat liver membrane incubated for 2 hrs by liquid scintillation counting method; type: cell membranes
T1 sequence (Q5U3Y7 whole entry): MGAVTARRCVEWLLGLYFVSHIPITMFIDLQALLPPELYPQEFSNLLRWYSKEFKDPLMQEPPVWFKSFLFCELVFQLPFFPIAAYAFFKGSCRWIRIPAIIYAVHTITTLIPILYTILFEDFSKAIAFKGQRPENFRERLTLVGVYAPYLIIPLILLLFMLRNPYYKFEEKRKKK

[2] = molecular target: Sigma non-opioid intracellular receptor 1 (Homo sapiens, UniProt Q99720); assay: Displacement of [3H]pentazocine from human sigma 1 receptor expressed in HEK293 cell membrane incubated for 2 hrs by liquid scintillation counting method; type: cell membranes
Acetylcholinesterase = Acetylcholinesterase (Homo sapiens, UniProt P22303); assay: Inhibition of human AChE
[3] = molecular target: T2, Amine oxidase [flavin-containing] B (Homo sapiens, UniProt P27338); assay: Inhibition of human MAO-B
T2 sequence (P27338 whole entry): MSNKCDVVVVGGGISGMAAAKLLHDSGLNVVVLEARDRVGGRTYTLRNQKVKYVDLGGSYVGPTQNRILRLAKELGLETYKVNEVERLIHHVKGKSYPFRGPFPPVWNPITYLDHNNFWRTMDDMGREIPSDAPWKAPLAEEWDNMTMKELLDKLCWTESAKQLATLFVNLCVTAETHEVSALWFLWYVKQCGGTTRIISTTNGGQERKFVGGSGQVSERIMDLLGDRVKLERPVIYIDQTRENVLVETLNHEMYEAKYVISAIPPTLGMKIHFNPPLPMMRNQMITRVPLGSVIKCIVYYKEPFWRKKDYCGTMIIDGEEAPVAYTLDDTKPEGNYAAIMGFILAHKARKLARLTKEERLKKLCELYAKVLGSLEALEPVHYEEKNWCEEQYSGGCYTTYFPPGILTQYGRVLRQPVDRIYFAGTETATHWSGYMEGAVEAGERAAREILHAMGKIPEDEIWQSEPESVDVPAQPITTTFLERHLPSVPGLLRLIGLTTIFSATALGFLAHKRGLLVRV

Cholinesterase = Cholinesterase (Homo sapiens, UniProt P06276); assay: Inhibition of human BuChE
[4] = molecular target: T3, MAO-B (amine oxidase [flavin-containing] B) (Homo sapiens, UniProt P27338); assay: Inhibition of human MAO-B assessed as residual activity at 10 uM; conditions: read-out: Activity
T3 sequence (P27338 whole entry): T2 sequence (P27338 whole entry)

Chain of Sigma non-opioid intracellular receptor 1 (Q99720 whole entry): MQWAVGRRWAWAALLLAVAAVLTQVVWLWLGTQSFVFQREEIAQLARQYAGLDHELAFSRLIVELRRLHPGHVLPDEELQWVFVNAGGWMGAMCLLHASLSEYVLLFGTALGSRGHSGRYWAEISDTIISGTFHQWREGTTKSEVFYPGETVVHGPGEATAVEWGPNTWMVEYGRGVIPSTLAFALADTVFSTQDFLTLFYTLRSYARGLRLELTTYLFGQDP
Chain of Cholinesterase (P06276 whole entry): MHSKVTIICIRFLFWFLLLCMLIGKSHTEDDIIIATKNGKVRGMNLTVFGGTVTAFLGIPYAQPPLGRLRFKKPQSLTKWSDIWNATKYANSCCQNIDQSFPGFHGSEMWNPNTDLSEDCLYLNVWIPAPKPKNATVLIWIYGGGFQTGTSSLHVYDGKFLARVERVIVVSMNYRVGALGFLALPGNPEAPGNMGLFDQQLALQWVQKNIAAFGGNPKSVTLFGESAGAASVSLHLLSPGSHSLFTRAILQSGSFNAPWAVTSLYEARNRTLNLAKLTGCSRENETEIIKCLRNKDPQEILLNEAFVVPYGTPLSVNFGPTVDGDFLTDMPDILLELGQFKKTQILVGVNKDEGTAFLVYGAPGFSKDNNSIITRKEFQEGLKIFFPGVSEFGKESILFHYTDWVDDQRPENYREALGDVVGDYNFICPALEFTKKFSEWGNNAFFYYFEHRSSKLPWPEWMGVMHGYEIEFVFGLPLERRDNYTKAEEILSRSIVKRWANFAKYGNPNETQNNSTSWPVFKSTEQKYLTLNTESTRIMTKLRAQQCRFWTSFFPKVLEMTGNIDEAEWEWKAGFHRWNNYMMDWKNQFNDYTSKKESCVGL
Chain of Acetylcholinesterase (P22303 whole entry): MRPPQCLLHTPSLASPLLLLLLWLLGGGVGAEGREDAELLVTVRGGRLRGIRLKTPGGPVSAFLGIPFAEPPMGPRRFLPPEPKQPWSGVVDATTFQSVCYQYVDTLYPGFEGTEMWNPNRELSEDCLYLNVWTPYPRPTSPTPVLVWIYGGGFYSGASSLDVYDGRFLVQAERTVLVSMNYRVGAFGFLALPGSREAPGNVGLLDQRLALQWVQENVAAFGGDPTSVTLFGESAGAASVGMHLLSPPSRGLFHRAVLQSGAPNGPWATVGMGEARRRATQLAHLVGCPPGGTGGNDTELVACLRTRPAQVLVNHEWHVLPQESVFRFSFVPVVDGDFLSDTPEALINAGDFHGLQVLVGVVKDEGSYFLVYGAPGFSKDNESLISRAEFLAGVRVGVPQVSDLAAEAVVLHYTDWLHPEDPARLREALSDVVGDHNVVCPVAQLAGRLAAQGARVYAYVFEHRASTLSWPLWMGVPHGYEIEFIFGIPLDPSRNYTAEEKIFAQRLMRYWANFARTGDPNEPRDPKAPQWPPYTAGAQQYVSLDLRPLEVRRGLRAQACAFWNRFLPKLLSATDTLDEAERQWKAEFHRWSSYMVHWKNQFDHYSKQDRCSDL

Row | Compound | Ki [1] [µM] | Ki [2] [µM] | also measured
1 | CN1CCN(CCOc2ccc3occc(=O)c3c2)CC1 | 14.2 | 0.604 | 
2 | O=c1ccoc2ccc(OCCCCN3CCCCC3)cc12 | 1.97 | 0.309 | IC50 (Acetylcholinesterase): 5.58 µM; IC50 ([3]; read-out: IC50): 7.2 µM; IC50 (Cholinesterase): 87.5 µM
3 | O=c1ccoc2ccc(OCCN3CCOCC3)cc12 | > 10 |  | 
4 | O=c1ccoc2ccc(OCCCCCN3CCCC3)cc12 | 1.45 | 0.087 | IC50 [3]: Not Active
5 | O=c1ccoc2ccc(OCCCN3CCCC3)cc12 | 23.9 | 0.499 | 
6 | CCN(CC)CCCOc1ccc2occc(=O)c2c1 | 8.36 | 1.22 | 
7 | O=c1ccoc2ccc(OCCCN3CCCCCC3)cc12 | 0.75 | 0.0272 | activity at 10 µM [4]: 54%
8 | CN1CCN(CCCOc2ccc3occc(=O)c3c2)CC1 | 17.1 | 0.809 | 
9 | O=c1ccoc2ccc(OCCCCCN3CCOCC3)cc12 | 2.63 | 0.0196 | activity at 10 µM [4]: 58%; IC50 (Cholinesterase): > 100 µM
10 | O=c1ccoc2ccc(OCCCCN3CCCC3)cc12 | 3.11 | 0.227 | 
11 | O=c1ccoc2ccc(OCCN3CCCCCC3)cc12 | 1.62 | 0.113 | 
12 | O=c1ccoc2ccc(OCCN3CCCC3)cc12 | 12.5 | 2.87 | 
13 | O=c1ccoc2ccc(OCCN3CCCCC3)cc12 | 9.07 | 0.825 | 
14 | O=c1ccoc2ccc(OCCCCN3CCOCC3)cc12 | 14.6 | 0.0239 | 
15 | O=c1ccoc2ccc(OCCCN3CCOCC3)cc12 | 22.5 | 0.245 | IC50 ([3]; read-out: IC50): 1.18 µM
16 | O=c1ccoc2ccc(OCCCN3CCCCC3)cc12 | 2.89 | 0.0655 | IC50 [3]: Not Active
17 | CN1CCN(CCCCCOc2ccc3occc(=O)c3c2)CC1 | 4.1 | 0.0825 | 
18 | C[C@@H]1CCCN1CCCCCOc1ccc2occc(=O)c2c1 | 0.583 | 0.134 | 
19 | CCN(CC)CCOc1ccc2occc(=O)c2c1 | 30 | 12.1 | 
20 | O=c1ccoc2ccc(OCCCCCN3CCCCC3)cc12 | 0.49 | 0.213 | 
21 | C[C@@H]1CCCN1CCCCOc1ccc2occc(=O)c2c1 | 1.09 | 0.104 | 
22 | CCN(CC)CCCCCOc1ccc2occc(=O)c2c1 | 2.5 | 0.218 | 
